Test system: MV-4-11 cells
Assay: Gene expression microarray analysis (Affymetrix PrimeView) and GSEA
Assay type: cell-based, human
Parameters: RFU PODN (11730768_x_at) / Fold change /veh PODN (11730768_x_at) / RFU LINC00158 (11744669_a_at) / Fold change /veh LINC00158 (11744669_a_at) / RFU DUSP10 (11751237_a_at) / Fold change /veh DUSP10 (11751237_a_at) / RFU ID3 (11757404_x_at) / Fold change /veh ID3 (11757404_x_at) / RFU PLEKHG5 (11737974_s_at) / Fold change /veh PLEKHG5 (11737974_s_at) / RFU LRRC4B (11730491_at) / Fold change /veh LRRC4B (11730491_at) / RFU GIMAP4 (11747438_a_at) / Fold change /veh GIMAP4 (11747438_a_at) / RFU KRT8 (11758183_x_at) / Fold change /veh KRT8 (11758183_x_at) / RFU CNN1 (11734310_a_at) / Fold change /veh CNN1 (11734310_a_at) / RFU VPS37D (11726825_at) / Fold change /veh VPS37D (11726825_at) / RFU C10orf10 (11716522_x_at) / Fold change /veh C10orf10 (11716522_x_at) / RFU KIR2DL2 /// KIR2DL4 /// KIR2DL5A /// KIR2DL5B /// KIR2DS1 /// KIR2DS2 /// KIR2DS3 /// KIR2DS4 /// KIR3DL3 /// KIR3DL3 /// KIR3DS1 (11738374_at) / Fold change /veh KIR2DL2 /// KIR2DL4 /// KIR2DL5A /// KIR2DL5B /// KIR2DS1 /// KIR2DS2 /// KIR2DS3 /// KIR2DS4 /// KIR3DL3 /// KIR3DL3 /// KIR3DS1 (11738374_at) / RFU C1QL1 (11718748_at) / Fold change /veh C1QL1 (11718748_at) / RFU TMPRSS4 (11747572_a_at) / Fold change /veh TMPRSS4 (11747572_a_at) / RFU HAMP (11756126_x_at) / Fold change /veh HAMP (11756126_x_at) / RFU RNFT2 (11725882_a_at) / Fold change /veh RNFT2 (11725882_a_at) / RFU NR4A2 (11747474_a_at) / Fold change /veh NR4A2 (11747474_a_at) / RFU ABCC12 (11746883_a_at) / Fold change /veh ABCC12 (11746883_a_at) / RFU TMEM136 (11760407_x_at) / Fold change /veh TMEM136 (11760407_x_at) / RFU CLDN22 /// WWC2 (11732394_at) / Fold change /veh CLDN22 /// WWC2 (11732394_at) / RFU HLA-DPB1 (11760878_x_at) / Fold change /veh HLA-DPB1 (11760878_x_at) / RFU SPINT1 (11716480_a_at) / Fold change /veh SPINT1 (11716480_a_at) / RFU GAP43 (11754022_s_at) / Fold change /veh GAP43 (11754022_s_at) / RFU A4GNT (11735810_at) / Fold change /veh A4GNT (11735810_at) / RFU PRB3 (11715151_x_at) / Fold change /veh PRB3 (11715151_x_at) / RFU TUBB4B (11761932_at) / Fold change /veh TUBB4B (11761932_at) / RFU CAPN14 (11732068_a_at) / Fold change /veh CAPN14 (11732068_a_at) / RFU TMCC2 (11721928_a_at) / Fold change /veh TMCC2 (11721928_a_at) / RFU IRGQ (11745062_a_at) / Fold change /veh IRGQ (11745062_a_at) / RFU FAM174B (11720279_a_at) / Fold change /veh FAM174B (11720279_a_at) / RFU TMPRSS4 (11748680_a_at) / Fold change /veh TMPRSS4 (11748680_a_at) / RFU FAM212B (11763350_a_at) / Fold change /veh FAM212B (11763350_a_at) / RFU PLEKHG5 (11743358_a_at) / Fold change /veh PLEKHG5 (11743358_a_at) / RFU ZSCAN30 (11745921_a_at) / Fold change /veh ZSCAN30 (11745921_a_at) / RFU CMKLR1 (11741424_a_at) / Fold change /veh CMKLR1 (11741424_a_at) / RFU LOC101060620 /// MAPK8IP1 (11723275_at) / Fold change /veh LOC101060620 /// MAPK8IP1 (11723275_at) / RFU SPTSSB (11747773_x_at) / Fold change /veh SPTSSB (11747773_x_at) / RFU PRSS12 (11739890_at) / Fold change /veh PRSS12 (11739890_at) / RFU BIN1 (11741810_x_at) / Fold change /veh BIN1 (11741810_x_at) / RFU WNT11 (11732464_a_at) / Fold change /veh WNT11 (11732464_a_at) / RFU C10orf10 (11716521_a_at) / Fold change /veh C10orf10 (11716521_a_at) / RFU C5orf56 (11738089_at) / Fold change /veh C5orf56 (11738089_at) / RFU CYB561 (11721691_x_at) / Fold change /veh CYB561 (11721691_x_at) / RFU ANKRD19P (11752326_a_at) / Fold change /veh ANKRD19P (11752326_a_at) / RFU OR2T12 /// OR2T33 /// OR2T8 (11738714_s_at) / Fold change /veh OR2T12 /// OR2T33 /// OR2T8 (11738714_s_at) / RFU VCAN (11748164_a_at) / Fold change /veh VCAN (11748164_a_at) / RFU JSRP1 (11732532_at) / Fold change /veh JSRP1 (11732532_at) / RFU KRTAP10-11 (11738290_x_at) / Fold change /veh KRTAP10-11 (11738290_x_at) / RFU MYO3A (11730013_a_at) / Fold change /veh MYO3A (11730013_a_at) / RFU EBF3 (11725865_a_at) / Fold change /veh EBF3 (11725865_a_at) / RFU CAMK2N1 (11719241_x_at) / Fold change /veh CAMK2N1 (11719241_x_at) / RFU C5orf56 (11738088_a_at) / Fold change /veh C5orf56 (11738088_a_at) / RFU OLFML3 (11715873_a_at) / Fold change /veh OLFML3 (11715873_a_at) / RFU LOC100653217 /// NTM (11731650_a_at) / Fold change /veh LOC100653217 /// NTM (11731650_a_at) / RFU MAPK11 (11762145_a_at) / Fold change /veh MAPK11 (11762145_a_at) / RFU FIZ1 (11724087_x_at) / Fold change /veh FIZ1 (11724087_x_at) / RFU OASL (11726364_x_at) / Fold change /veh OASL (11726364_x_at) / RFU SOX15 (11748057_x_at) / Fold change /veh SOX15 (11748057_x_at) / RFU CD79A (11719716_a_at) / Fold change /veh CD79A (11719716_a_at) / RFU HIST1H1D (11736915_at) / Fold change /veh HIST1H1D (11736915_at) / RFU CASKIN2 (11723855_a_at) / Fold change /veh CASKIN2 (11723855_a_at) / RFU LOC730098 (11760151_x_at) / Fold change /veh LOC730098 (11760151_x_at) / RFU OR4N2 (11742367_at) / Fold change /veh OR4N2 (11742367_at) / RFU PRRT2 (11749266_a_at) / Fold change /veh PRRT2 (11749266_a_at) / RFU SNX32 (11753110_a_at) / Fold change /veh SNX32 (11753110_a_at) / RFU CDHR5 (11726645_a_at) / Fold change /veh CDHR5 (11726645_a_at) / RFU RCAN1 (11760418_a_at) / Fold change /veh RCAN1 (11760418_a_at) / RFU FAM167A (11723789_a_at) / Fold change /veh FAM167A (11723789_a_at) / RFU FAM26E (11764081_at) / Fold change /veh FAM26E (11764081_at) / RFU ISYNA1 (11749810_s_at) / Fold change /veh ISYNA1 (11749810_s_at) / RFU ACY1 (11761880_at) / Fold change /veh ACY1 (11761880_at) / RFU 11764098_at / Fold change /veh 11764098_at / RFU SAMD14 (11745864_x_at) / Fold change /veh SAMD14 (11745864_x_at) / RFU NPB (11741838_a_at) / Fold change /veh NPB (11741838_a_at) / RFU TMPRSS6 (11731388_a_at) / Fold change /veh TMPRSS6 (11731388_a_at) / RFU KRTAP10-2 (11738614_at) / Fold change /veh KRTAP10-2 (11738614_at) / RFU ARHGAP8 /// PRR5-ARHGAP8 (11727945_x_at) / Fold change /veh ARHGAP8 /// PRR5-ARHGAP8 (11727945_x_at) / RFU KRTAP5-7 /// NADSYN1 (11734609_at) / Fold change /veh KRTAP5-7 /// NADSYN1 (11734609_at) / RFU RASL12 (11751679_a_at) / Fold change /veh RASL12 (11751679_a_at) / RFU CDKN2B (11736163_a_at) / Fold change /veh CDKN2B (11736163_a_at) / RFU PRF1 (11729649_at) / Fold change /veh PRF1 (11729649_at) / RFU, ZNF638 /// ZNF638-IT1 / Fold change vs veh, ZNF638 /// ZNF638-IT1 / RFU, PANK3 / Fold change vs veh, PANK3 / RFU, SH3YL1 / Fold change vs veh, SH3YL1 / RFU, ZEB2 / Fold change vs veh, ZEB2 / RFU, NRIP1 / Fold change vs veh, NRIP1 / RFU, PTTG1IP / Fold change vs veh, PTTG1IP / RFU, CAPN2 / Fold change vs veh, CAPN2 / RFU, MED14 / Fold change vs veh, MED14 / RFU, SNORA58 / Fold change vs veh, SNORA58 / RFU, C1orf63 / Fold change vs veh, C1orf63 / RFU, LRRFIP1 / Fold change vs veh, LRRFIP1 / RFU, NDUFAF7 / Fold change vs veh, NDUFAF7 / RFU, SLC12A2 / Fold change vs veh, SLC12A2 / RFU, IBTK / Fold change vs veh, IBTK / RFU, ESF1 / Fold change vs veh, ESF1 / Fold change vs veh, TMEM50B / RFU, TAOK1 / Fold change vs veh, TAOK1 / RFU, ACBD3 / Fold change vs veh, ACBD3 / RFU, TMA16 / Fold change vs veh, TMA16 / RFU, RWDD3 / Fold change vs veh, RWDD3 / RFU, BCAT1 / Fold change vs veh, BCAT1 / RFU, EDEM3 / Fold change vs veh, EDEM3 / RFU, TMEM33 / Fold change vs veh, TMEM33 / RFU, WDR75 / Fold change vs veh, WDR75 / RFU, AHCTF1 / Fold change vs veh, AHCTF1 / RFU, TFRC / Fold change vs veh, TFRC / RFU, ZDHHC17 / Fold change vs veh, ZDHHC17 / RFU, NOM1 / Fold change vs veh, NOM1 / RFU, ARL8B / Fold change vs veh, ARL8B / RFU, ZBTB11 / Fold change vs veh, ZBTB11 / RFU, TAMM41 / Fold change vs veh, TAMM41 / RFU, KIAA1704 /// LOC100996395 / Fold change vs veh, KIAA1704 /// LOC100996395 / RFU, ING1 / Fold change vs veh, ING1 / RFU, TRMT61B / Fold change vs veh, TRMT61B / RFU, FUBP3 / Fold change vs veh, FUBP3 / RFU, TP53 / Fold change vs veh, TP53 / RFU, TNKS2 / Fold change vs veh, TNKS2 / RFU, ZFP14 / Fold change vs veh, ZFP14 / RFU, ACTR2 / Fold change vs veh, ACTR2 / RFU, PPP3R1 / Fold change vs veh, PPP3R1 / RFU, PIK3R1 / Fold change vs veh, PIK3R1 / RFU, HNRNPA1 / Fold change vs veh, HNRNPA1 / RFU, RNF170 / Fold change vs veh, RNF170 / RFU, ZNF28 / Fold change vs veh, ZNF28 / RFU, RNGTT / Fold change vs veh, RNGTT / RFU, OGT / Fold change vs veh, OGT / RFU, BRD1 / Fold change vs veh, BRD1 / RFU, MARS / Fold change vs veh, MARS / RFU, ZNF655 / Fold change vs veh, ZNF655 / RFU, FAHD1 / Fold change vs veh, FAHD1 / RFU, BDP1 / Fold change vs veh, BDP1 / RFU, LRRCC1 / Fold change vs veh, LRRCC1 / RFU, ARID1A / Fold change vs veh, ARID1A / RFU, ZNF146 / Fold change vs veh, ZNF146 / RFU, ZNF330 / Fold change vs veh, ZNF330 / RFU, GPN3 / Fold change vs veh, GPN3 / RFU, C9orf123 / Fold change vs veh, C9orf123 / RFU, N4BP2L2 / Fold change vs veh, N4BP2L2 / RFU, ARFIP1 / Fold change vs veh, ARFIP1 / RFU, FAM179B / Fold change vs veh, FAM179B / RFU, BCL10 / Fold change vs veh, BCL10 / RFU, UHRF1BP1L / Fold change vs veh, UHRF1BP1L / RFU, BET1 / Fold change vs veh, BET1 / RFU, CNOT2 / Fold change vs veh, CNOT2 / RFU, ZNF268 / Fold change vs veh, ZNF268 / Fold change vs veh, ZNF507 / RFU, DGCR2 / Fold change vs veh, DGCR2 / RFU, WDSUB1 / Fold change vs veh, WDSUB1 / Fold change vs veh, HSP90B1 /// MIR3652 / RFU, ADSS / Fold change vs veh, ADSS / RFU, GK / Fold change vs veh, GK / RFU, ZNF148 / Fold change vs veh, ZNF148 / RFU, TAF9 / Fold change vs veh, TAF9 / RFU, SLC1A5 / Fold change vs veh, SLC1A5 / RFU, SLMO2 / Fold change vs veh, SLMO2 / RFU, ABCC4 / Fold change vs veh, ABCC4 / RFU, LOC101060439 /// RAP1B / Fold change vs veh, LOC101060439 /// RAP1B / RFU, RFX7 / Fold change vs veh, RFX7 / RFU, GTPBP10 / Fold change vs veh, GTPBP10 / RFU, CNEP1R1 / Fold change vs veh, CNEP1R1 / RFU, BIVM-ERCC5 /// ERCC5 / Fold change vs veh, BIVM-ERCC5 /// ERCC5 / RFU, ILF3 / Fold change vs veh, ILF3 / RFU 11762660_at / Fold change /veh 11762660_at / RFU VCAN (11757783_s_at) / Fold change /veh VCAN (11757783_s_at) / RFU DDX43 (11728927_at) / Fold change /veh DDX43 (11728927_at) / RFU KRT8 (11758188_x_at) / Fold change /veh KRT8 (11758188_x_at) / RFU NKD1 (11759106_at) / Fold change /veh NKD1 (11759106_at) / RFU SRD5A1 (11742802_a_at) / Fold change /veh SRD5A1 (11742802_a_at) / RFU TPSAB1 /// TPSB2 (11721975_s_at) / Fold change /veh TPSAB1 /// TPSB2 (11721975_s_at) / RFU GSTM3 (11746129_a_at) / Fold change /veh GSTM3 (11746129_a_at) / RFU IL23R (11737362_x_at) / Fold change /veh IL23R (11737362_x_at) / RFU TMEM51 (11727254_a_at) / Fold change /veh TMEM51 (11727254_a_at) / RFU PIWIL2 (11732686_x_at) / Fold change /veh PIWIL2 (11732686_x_at) / RFU ORM1 (11744905_x_at) / Fold change /veh ORM1 (11744905_x_at) / RFU CCDC152 (11743942_at) / Fold change /veh CCDC152 (11743942_at) / RFU ECM1 (11717891_a_at) / Fold change /veh ECM1 (11717891_a_at) / RFU IL23R (11748794_a_at) / Fold change /veh IL23R (11748794_a_at) / RFU TNFAIP8L3 (11732012_x_at) / Fold change /veh TNFAIP8L3 (11732012_x_at) / RFU MBOAT4 (11741988_at) / Fold change /veh MBOAT4 (11741988_at) / RFU 11764193_at / Fold change /veh 11764193_at / RFU TMEM53 (11763286_at) / Fold change /veh TMEM53 (11763286_at) / RFU MAGEB2 (11727129_at) / Fold change /veh MAGEB2 (11727129_at) / RFU TMEM200A (11744735_a_at) / Fold change /veh TMEM200A (11744735_a_at) / RFU CCDC152 (11751479_a_at) / Fold change /veh CCDC152 (11751479_a_at) / RFU FAM211A (11726209_a_at) / Fold change /veh FAM211A (11726209_a_at) / RFU RGS16 (11746705_a_at) / Fold change /veh RGS16 (11746705_a_at) / RFU VCAN (11755009_s_at) / Fold change /veh VCAN (11755009_s_at) / RFU RHOB (11743442_s_at) / Fold change /veh RHOB (11743442_s_at) / RFU RGS16 (11720943_a_at) / Fold change /veh RGS16 (11720943_a_at) / RFU RGS16 (11720944_at) / Fold change /veh RGS16 (11720944_at) / RFU, VPS4B / Fold change vs veh, VPS4B / RFU, CREB1 / Fold change vs veh, CREB1 / RFU, DNAJC13 / Fold change vs veh, DNAJC13 / RFU, GNAQ / Fold change vs veh, GNAQ / RFU, CDK5R1 / Fold change vs veh, CDK5R1 / RFU, ZRANB3 / Fold change vs veh, ZRANB3 / RFU, CUL4A / Fold change vs veh, CUL4A / RFU, CCNY / Fold change vs veh, CCNY / RFU, UFL1 / Fold change vs veh, UFL1 / RFU, COG3 / Fold change vs veh, COG3 / RFU, DIAPH2 / Fold change vs veh, DIAPH2 / RFU, SKA2 / Fold change vs veh, SKA2 / RFU, AFF3 / Fold change vs veh, AFF3 / RFU, LMF1 / Fold change vs veh, LMF1 / RFU, IPO11 / Fold change vs veh, IPO11 / RFU, DFFB / Fold change vs veh, DFFB / RFU, FOXP1 / Fold change vs veh, FOXP1 / RFU, CARD8 / Fold change vs veh, CARD8 / RFU, STRN3 / Fold change vs veh, STRN3 / RFU, ADK / Fold change vs veh, ADK / RFU, RASSF2 / Fold change vs veh, RASSF2 / RFU, WIPF1 / Fold change vs veh, WIPF1 / RFU, LARP1B / Fold change vs veh, LARP1B / RFU, RASA1 / Fold change vs veh, RASA1 / RFU, RB1 / Fold change vs veh, RB1 / RFU, PPFIA1 / Fold change vs veh, PPFIA1 / RFU, MAT2A / Fold change vs veh, MAT2A / RFU, CCT5 / Fold change vs veh, CCT5 / RFU, WDR92 / Fold change vs veh, WDR92 / RFU, CUX1 / Fold change vs veh, CUX1 / RFU, TTC7A / Fold change vs veh, TTC7A / RFU, TMEM135 / Fold change vs veh, TMEM135 / RFU, DEPTOR / Fold change vs veh, DEPTOR / RFU, CPM / Fold change vs veh, CPM / RFU, DNAJB6 / Fold change vs veh, DNAJB6 / RFU, CACNA2D3 / Fold change vs veh, CACNA2D3 / RFU, DTX4 / Fold change vs veh, DTX4 / RFU, TFCP2 / Fold change vs veh, TFCP2 / RFU, GMCL1 /// GMCL1P1 / Fold change vs veh, GMCL1 /// GMCL1P1 / RFU, AEBP2 / Fold change vs veh, AEBP2 / RFU, SNHG1 /// SNORD22 /// SNORD25 /// SNORD26 /// SNORD27 /// SNORD28 /// SNORD29 /// SNORD31 / Fold change vs veh, SNHG1 /// SNORD22 /// SNORD25 /// SNORD26 /// SNORD27 /// SNORD28 /// SNORD29 /// SNORD31 / Fold change (Aza/veh), C12orf56 (ProbeSet 11735607_a_at) / Fold change (ACY-1035/veh), C12orf56 (ProbeSet 11735607_a_at) / Fold change (Aza/veh), FGFR1OP (ProbeSet 11751329_s_at) / Fold change (ACY-1035/veh), FGFR1OP (ProbeSet 11751329_s_at) / Fold change (Aza/veh), VPS36 (ProbeSet 11739960_a_at) / Fold change (ACY-1035/veh), VPS36 (ProbeSet 11739960_a_at) / RFU SYPL1 (11715823_x_at) / Fold change /veh SYPL1 (11715823_x_at) / RFU IGFBP7 (11715501_s_at) / Fold change /veh IGFBP7 (11715501_s_at) / RFU REEP3 (11722064_at) / Fold change /veh REEP3 (11722064_at) / RFU IGLL1 (11728026_x_at) / Fold change /veh IGLL1 (11728026_x_at): dose or concentration left out as unconfirmed
Conditions: MV-4-11 cells, 48 hours

## Nc1ncn([C@@H]2O[C@H](CO)[C@@H](O)[C@H]2O)c(=O)n1 [azacitidine]
  Fold change /veh REEP3 (11722064_at): 0.73
